# Where two headings read alike, the source gives them in different places.
# Assays:
# Leishmania donovani = experiment: Antiparasitic assay, Leishmania donovani; assay type: cell-based; settings: for IC50: mean of duplicate assays, read-out: L. Don. IC50
# From the text: (§1) The set of compounds were screened against a panel of four parasitic protozoa: Trypanosoma brucei rhodesiense, Trypanosoma cruzi, Leishmania donovani and Plasmodium falciparum K1 dual drug-resistant strain.
# (§2) Detailed protocols for these assays have been described elsewhere.
# [1] = tested on: Trypanosoma brucei rhodesiense; experiment: Antiparasitic assay, Trypanosoma brucei rhodesiense; assay type: cell-based; settings: for IC50: read-out: T. B. Rhod. IC50
# From the text: as §1, §2
# [2] = tested on: Plasmodium falciparum K1 dual drug-resistant strain; experiment: Antiparasitic assay, Plasmodium falciparum K1; assay type: cell-based; settings: for SI Pf, antiplasmodial selectivity index = L6 IC50/P f. IC50: L6 versus P. falciparum K1
# From the text: as §1, §2
# Trypanosoma cruzi = experiment: Antiparasitic assay, Trypanosoma cruzi; assay type: cell-based; settings: for IC50: mean of duplicate assays, read-out: T. Cruzi IC50
# From the text: as §1, §2
# L6 cytotoxicity assay = assay type: cell-based, rat; settings: rat, mean of duplicate assays
# [3] = cited from earlier work
# [4] = tested on: panel of human tumour cell lines (NCI 60 cell-line panel); experiment: cells; settings: for tumour cell mean growth: preliminary single dose (10 μM) testing
# From the text: Protocols of testing at the DTP, NCI have been described elsewhere.
# [5] = tested on: Plasmodium falciparum (Pf) D6 clone; parameters: method as in PMID 20337497; settings: cited from earlier work
# [6] = tested on: L6 rat skeletal myoblast cell line; experiment: L6 cytotoxicity assay; assay type: cell-based
# Vero cell line = tested on: Vero cell line; parameters: method as in PMID 20337497; settings: cited from earlier work
# Pf W2 clone = settings: cited from earlier work
# [7] = tested on: non-malignant human keratinocyte cell line; parameters: method as in PMID 32054048; settings: read-out: human keratinocyte cell line IC50 (cytotoxicity); cited from earlier work
# [8] = tested on: human colon tumour cell line HCT-116; settings: read-out: HCT-116 IC50 (cytotoxicity); cited from earlier work
# [9] = Trypanosoma brucei, RHODESIENSE, mean of duplicate assays
# [10] = Plasmodium falciparum, K1, read-out: P. Falc. K1 IC50
# [11] = Leishmania donovani, read-out: L. Don. % inhibition
# [12] = Plasmodium falciparum, K1, read-out: P. Falc. K1 % inhibition
# [13] = Trypanosoma cruzi, read-out: T. Cruzi % inhibition
# [14] = Trypanosoma brucei, RHODESIENSE
compound,measurement,setting,value
"Cn1cnc(SC2[C@H]3C(=O)C=C4S[C@H]5C[C@]42C2=C(N5)C(=O)c4[nH]cc5c4C2=[N+]3CC5)c1C[C@H](N)C(=O)O (single isomer, unassigned; (+)) [Compound 12, (+)-discorhabdin H2]",IC50,Leishmania donovani; Leishmania donovani,94 µM
same,IC50,[1]; [9],2.3 µM
same,"SI Pf, antiplasmodial selectivity index = L6 IC50/P f. IC50",[2],1.4
same,IC50,[2]; [10],12 µM
same,IC50,Trypanosoma cruzi; Trypanosoma cruzi,63 µM
same,IC50,L6 cytotoxicity assay,17 µM
"O=C1C=C2S[C@H]3C[C@]2(C=C1Br)C1=C(N3)C(=O)c2[nH]cc3c2C1=NCC3 [Compound 1, (+)-discorhabdin B]",inhibition at 1.5 µM,Leishmania donovani; [11],57%
same,inhibition at 1.5 µM,"[1]; Trypanosoma brucei, RHODESIENSE, read-out: T. B. Rhod. % inhibition",99%
same,"cytotoxicity (in words, Figure 9)",[3],Cytotoxic
same,inhibition at 1.5 µM,[2]; [12],100%
same,inhibition at 1.5 µM,Trypanosoma cruzi; [13],100%
"CCCCCSC1=CC(=O)C(Br)=CC12CCNC1=C2C2=NCCc3c[nH]c(c32)C1=O (stereo not shown) [Compound 4, Thiopentanyl-Discorhabdin C Adduct]",GI50,"[4]; Homo sapiens, read-out: GI50 (50% growth inhibition)",1.4 µM
same,CC50,"[4]; Homo sapiens, read-out: LC50 (50% cell kill)",10.5 µM
same,TGI (total growth inhibition),"[4]; averaged calculated mean over panel, two experiments at the NCI",3.9 µM
"CCCCCNC1[C@@H]2[N+]3=C4C5=C(NCC[C@@]51[C@@H](O)[C@@H](Br)C2(O)O)C(=O)c1[nH]cc(c14)CC3 (stereo partly shown) [Compound 6, Aminopentane Discorhabdin C Dihydrate Adduct]",tumour cell line cytotoxicity / antitumour activity (in words),[4]; NCI human tumour cell line panel,inactive
same,tumour cell mean growth,[4],100.67%
same,"SI Pf, antiplasmodial selectivity index = L6 IC50/P f. IC50",[2],3.2
same,IC50,[2]; [10],0.25 µM
same,IC50,L6 cytotoxicity assay,0.81 µM
"O=C1C2=C3C4=[N+](CCc5c[nH]c1c54)C1(O)CCC3(CCN2)CC1 [Compound 7, Discorhabdin C Hydrogenation Product]",tumour cell mean growth,[4],99.57%
same,"SI Pf, antiplasmodial selectivity index = L6 IC50/P f. IC50",[2],19
same,IC50,"[2]; Plasmodium falciparum, K1, mean of duplicate assays, read-out: P. Falc. K1 IC50",0.09 µM
same,IC50,L6 cytotoxicity assay; L6 rat skeletal myoblast cells,1.7 µM
O=C1C(Br)=CC2(C=C1Br)CCNC1=C2C2=NCCc3cn(C4C5[N+]6=C7C8=C(NCCC84C(O)C(Br)C5(O)O)C(=O)c4[nH]cc(c47)CC6)c(c32)C1=O (stereo not shown) [Compound 8],IC50,Leishmania donovani; Leishmania donovani,18.7 µM
same,activity towards Trypanosoma brucei rhodesiense (in words),[1],sub-micromolar
same,IC50,[1]; [9],0.71 µM
same,"SI Pf, antiplasmodial selectivity index = L6 IC50/P f. IC50",[2],0.3
same,IC50,[2]; [10],6.4 µM
same,IC50,Trypanosoma cruzi; Trypanosoma cruzi,11.1 µM
same,IC50,L6 cytotoxicity assay,2.1 µM
"O=C1C2=C(C3=NCCc4c[nH]c1c43)C1(C=C(Br)C(O)C(Br)=C1)CCN2 (stereo not shown) [Compound 9, 3-dihydrodiscorhabdin C]",IC50,[5],0.17 µM
same,IC50,"[2]; mean of duplicate assays, read-out: P. Falc. K1 IC50",0.4 µM
same,IC50,[6],0.11 µM
same,IC50,Vero cell line,9.8 µM
same,IC50,Pf W2 clone,0.13 µM
O=C1C2=C3C4=[N+](CCc5c[nH]c1c54)[C@@H]1C(=O)C=C4S[C@@H](C[C@@]43C1O)N2 (stereo partly shown) [Compound 14],inhibition at 1.9 µM,Leishmania donovani; [11],20%
same,IC50,[1]; [14],1.3 µM
same,inhibition at 1.9 µM,[2]; [12],20%
same,inhibition at 12 µM,Trypanosoma cruzi; [13],9%
same,IC50,L6 cytotoxicity assay,11 µM
CSC1=CC(=O)C(Br)=C[C@]12C=CNC1=C2C2=NCCc3cn(C)c(c32)C1=O [Compound 16],"SI Pf, antiplasmodial selectivity index = L6 IC50/P f. IC50",[2],3.6
same,IC50,[2]; [10],1.7 µM
same,IC50,L6 cytotoxicity assay,6.1 µM
O=C1C2=C(C3=NCCc4c[nH]c1c43)c1c(cc(Br)c(O)c1Br)CCN2 [Compound 17],IC50,[7],0.56 µM
same,inhibition at 0.8 µM,"Leishmania donovani; Leishmania donovani, at 0.8 μM, read-out: L. Don. % inhibition",29%
same,activity towards Trypanosoma brucei rhodesiense (in words),[1],sub-micromolar
same,IC50,[1]; [9],0.33 µM
same,IC50,[8],0.16 µM
same,"SI Pf, antiplasmodial selectivity index = L6 IC50/P f. IC50",[2],510
same,IC50,[2]; [10],0.08 µM
same,inhibition at 0.8 µM,"Trypanosoma cruzi; Trypanosoma cruzi, at 0.8 μM, read-out: T. Cruzi % inhibition",0%
same,IC50,L6 cytotoxicity assay,41 µM
"O=C(Cn1ccnc1[N+](=O)[O-])NCc1ccccc1 [benznidazole, reference compound]",IC50,Trypanosoma cruzi; Trypanosoma cruzi,1.35 µM
"CCN(CC)CCCC(C)Nc1ccnc2cc(Cl)ccc12 (stereo not shown) [chloroquine, reference compound]",IC50,[2]; [10],0.2 µM
"Nc1nc(N)nc(Nc2ccc([As]3SCC(CO)S3)cc2)n1 (stereo not shown) [melarsoprol, reference compound]",IC50,[1]; [14],0.01 µM
"CCCCCCCCCCCCCCCCOP(=O)([O-])OCC[N+](C)(C)C [miltefosine, reference compound]",IC50,Leishmania donovani; Leishmania donovani,0.52 µM
"COc1cc([C@@H]2c3cc4c(cc3[C@H](O)[C@H]3COC(=O)[C@H]23)OCO4)cc(OC)c1OC [podophyllotoxin, reference compound]",IC50,L6 cytotoxicity assay,0.01 µM
discorhabdin U [Compound 15],L. Don. % inhibition,Leishmania donovani; at 1.5 μM,97% (1.5)
same,T. B. Rhod. % inhibition,[1]; at 1.5 μM,100% (1.5)
same,P. Falc. K1 % inhibition,[2]; at 1.5 μM,100% (1.5)
same,T. Cruzi % inhibition,Trypanosoma cruzi; at 1.5 μM,100% (1.5)

# From PMC7460216 (Marine Drugs, 2020)
